Test results taken from patent US12668599B2, “Heterobifunctional compounds and methods of treating disease” (Halda Therapeutics OpCo, Inc., priority 2023, dated 2026).

Columns and labels:
[1] = system: T-Rex 293 cell line SC3 cells lacking increased expression of androgen receptor protein; test: Cellular growth inhibition, T-Rex 293 SC3 cells without doxycycline (CellTiter-Glo 2.0, 72 hours); format: cell-based; conditions: T-Rex 293 SC3 cells not exposed to doxycycline (no increased androgen receptor expression)
[2] = system: VCaP cells; test: Cellular growth inhibition assay for VCaP cells (CellTiter-Glo 2.0, 72 hours); format: cell-based, human; conditions: for GI50: CellTiter-Glo 2.0
[3] = system: T-Rex 293 cell line SC3 cells having increased expression of androgen receptor protein due to exposure to doxycycline; test: Cellular growth inhibition, T-Rex 293 SC3 cells with doxycycline-induced androgen receptor (CellTiter-Glo 2.0, 72 hours); format: cell-based; conditions: for GI50: T-Rex 293 SC3 cells with 10 ng/ml doxycycline (increased androgen receptor expression), 72 hours, CellTiter-Glo 2.0

Row | SMILES | GI50 ([2]; Homo sapiens, VCaP, 72 h) [nM] | GI50 ([2]; 72 hours) [nM] | Ratio of GI50's ([2]; GI50 of the top compound in the pair divided by GI50 of the lower compound) | GI50 ([1]; 72 h) [nM] | GI50 [3] [nM] | GI50 [1] [nM] | Ratio of GI50's ([3]; GI50 of the top compound in the pair divided by GI50 of the lower compound, T-Rex 293 SC3 cells with doxycycline-induced androgen receptor)
1 | COc1cc(O[C@H]2CC[C@H](NC(=O)c3ccc(N4CCC5(CCN(c6ccc(C7=N[C@@H](C)c8nnc(C)n8-c8sc(C)c(C)c87)cc6C(C)C)CC5)C4)nn3)CC2)ccc1C#N [Compound I-105, N-[4-(4-cyano-3-methoxy-phenoxy)cyclohexyl]-6-[8-[2-isopropyl-4-[(9S)-4,5,9,13-tetramethyl-3-thia1,8,11,12-tetrazatricyclo[8.3.0.0^2,6]trideca-2 (6),4,7,10,12-pentaen-7-yl]phenyl]-2,8-diazaspiro[4.5]decan-2-yl]pyridazine-3-carboxamide] | 500 to 1500 | – | – | > 3000 | < 500 | – | –
2 | COc1cc(O[C@H]2CC[C@H](NC(=O)c3ccc(-n4cc5c(c4)CN(c4ccc(C6=N[C@@H](C)c7nnc(C)n7-c7sc(C)c(C)c76)cc4)C5)nn3)CC2)ccc1C#N [Compound I-108] | < 500 | – | – | < 500 | < 500 | – | –
3 | COc1cc(O[C@H]2CC[C@H](NC(=O)c3ccc(N4CCC5(CCN(c6ccc(C7=N[C@@H](C)c8nnc(C)n8-c8sc(C)c(C)c87)cc6)CC5(F)F)C4)nn3)CC2)ccc1C#N (some centres unmarked) [Compound I-113] | < 500 | – | – | < 500 | < 500 | – | –
4 | COc1cc(O[C@H]2CC[C@H](NC(=O)c3ccc(N4CC5(CCC5)C5(CCN(c6ccc(C7=N[C@@H](C)c8nnc(C)n8-c8sc(C)c(C)c87)cc6)CC5)C4)nn3)CC2)ccc1C#N [Compound I-114] | < 500 | – | – | < 500 | < 500 | – | –
5 | COc1cc(O[C@H]2CC[C@H](NC(=O)c3ccc(N4CCC5(CCN(c6ccc(C7=N[C@@H](C)c8nnc(C)n8-c8sc(C)c(C)c87)cc6)CC5(F)F)C4)nn3)CC2)ccc1C#N (some centres unmarked) [Compound I-116] | – | < 500 | – | – | < 500 | < 500 | –
6 | COc1cc(O[C@H]2CC[C@H](NC(=O)c3ccc(N4CC(C)(C)C5(CCN(c6ccc(C7=N[C@@H](C)c8nnc(C)n8-c8sc(C)c(C)c87)cc6)CC5)C4)nn3)CC2)ccc1C#N [Compound I-120] | < 500 | – | – | < 500 | < 500 | – | –
7 | COc1cc(O[C@H]2CC[C@H](NC(=O)c3ccc(N4CCC5(CCC(c6ccc(C7=N[C@@H](C)c8nnc(C)n8-c8sc(C)c(C)c87)cc6C(C)C)CC5)C4)nn3)CC2)ccc1C#N (some centres unmarked) [Compound I-121] | < 500 | – | – | > 3000 | < 500 | – | –
8 | COc1cc(O[C@H]2CC[C@H](NC(=O)c3ccc(N4CCC5(CCC(c6ccc(C7=N[C@@H](C)c8nnc(C)n8-c8sc(C)c(C)c87)cc6C(C)C)CC5)C4)nn3)CC2)ccc1C#N (some centres unmarked) [Compound I-122] | – | 500 to 1500 | – | – | < 500 | 1500 to 3000 | –
9 | COc1cc(O[C@H]2CC[C@H](NC(=O)c3ccc(N4CCC5(CC4)CC(Cc4ccc(C6=N[C@@H](Cc7ncco7)c7nnc(C)n7-c7sc(C)c(C)c76)c(F)c4)C5)nn3)CC2)ccc1C#N [Compound I-125, N-[4-(4-cyano-3-methoxy-phenoxy)cyclohexyl]-6-[2-[[3-fluoro-4-[(9S)-4,5,13-trimethyl-9-(oxazol-2-ylmethyl)-3-thia-1,8,11,12-tetrazatricyclo[8.3.0.0^2,6]trideca-2 (6),4,7,10,12-pentaen-7-yl]phenyl]methyl]-7-azaspiro[3.5]nonan-7-yl]pyridazine-3-carboxamide] | < 500 | – | – | < 500 | < 500 | – | –

The next lines start with results.

Row | GI50 ([2]; Homo sapiens, VCaP, 72 h) [nM] | GI50 ([2]; 72 hours) [nM] | Ratio of GI50's ([2]; GI50 of the top compound in the pair divided by GI50 of the lower compound) | SMILES | GI50 ([1]; 72 h) [nM] | GI50 [3] [nM] | GI50 [1] [nM] | Ratio of GI50's ([3]; GI50 of the top compound in the pair divided by GI50 of the lower compound, T-Rex 293 SC3 cells with doxycycline-induced androgen receptor)
10 | < 500 | – | – | COc1cc(O[C@H]2CC[C@H](NC(=O)c3ccc(N4C[C@H]5CN(c6ccc(C7=N[C@@H](Cc8ncco8)c8nnc(C)n8-c8sc(C)c(C)c87)cc6)C[C@H]5C4)nn3)CC2)ccc1C#N [Compound I-106, 6-[(3aR,6aS)-2-[4-[(9S)-4,5,13-trimethyl-9-(oxazol-2-ylmethyl)-3-thia-1,8,11,12-tetrazatricyclo[8.3.0.0^2,6]trideca-2 (6),4,7,10,12-pentaen-7-yl]phenyl]-1,3,3a,4,6,6a-hexahydropyrrolo[3,4-c]pyrrol-5-yl]-N-[4-(4-cyano-3-methoxy-phenoxy)cyclohexyl]pyridazine-3-carboxamide] | < 500 | < 500 | – | –
11 | < 500 | – | – | COc1cc(O[C@H]2CC[C@H](NC(=O)c3ccc(N4CC(F)(F)C5(CCN(c6ccc(C7=N[C@@H](C)c8nnc(C)n8-c8sc(C)c(C)c87)cc6)CC5)C4)nn3)CC2)ccc1C#N [Compound I-107, N-[4-(4-cyano-3-methoxy-phenoxy)cyclohexyl]-6-[4,4-difluoro-8-[4-[(9S)-4,5,9,13-tetramethyl-3-thia-1,8,11,12-tetrazatricyclo[8.3.0.0^2,6]trideca-2 (6),4,7,10,12-pentaen-7-yl]phenyl]-2,8-diazaspiro[4.5]decan-2-yl]pyridazine-3-carboxamide] | < 500 | < 500 | – | –
12 | < 500 | – | – | COc1cc(O[C@H]2CC[C@H](NC(=O)c3ccc(N4CC5(CC(C#Cc6ccc(C7=NC(Cc8ncco8)c8nnc(C)n8-c8sc(C)c(C)c87)c(F)c6)C5)C4)nn3)CC2)ccc1C#N (some centres unmarked) [Compound I-112] | > 3000 | < 500 | – | –
13 | < 500 | – | – | COc1cc(O[C@H]2CC[C@H](NC(=O)c3ccc(N4CC(F)(F)C5(CCN(c6ccc(C7=N[C@@H](C)c8nnc(C)n8-c8sc(C)c(C)c87)cc6)C5)C4)nn3)CC2)ccc1C#N (some centres unmarked) [Compound I-117] | < 500 | < 500 | – | –
14 | < 500 | – | – | COc1cc(O[C@H]2CC[C@H](NC(=O)c3ccc(N4C[C@]5(C)CN(c6ccc(C7=N[C@@H](Cc8ncco8)c8nnc(C)n8-c8sc(C)c(C)c87)cc6)C[C@]5(C)C4)nn3)CC2)ccc1C#N [Compound I-118] | < 500 | < 500 | – | –
15 | < 500 | – | – | COc1cc(O[C@H]2CC[C@H](NC(=O)c3ccc(N4C[C@]5(F)CN(c6ccc(C7=N[C@@H](Cc8ncco8)c8nnc(C)n8-c8sc(C)c(C)c87)cc6)C[C@]5(F)C4)nn3)CC2)ccc1C#N [Compound I-119] | < 500 | < 500 | – | –
16 | < 500 | – | 1 | COc1cc(O[C@H]2CC[C@H](NC(=O)c3ccc(N4CC5(CC(C#Cc6ccc(C7=N[C@@H](Cc8ncco8)c8nnc(C)n8-c8sc(C)c(C)c87)cc6)C5)C4)nn3)CC2)ccc1C#N [Compound I-124, N-[(1r,4r)-4-(4-cyano-3-methoxy-phenoxy)cyclohexyl]-6-[6-[2-[4-[(9S)-4,5,13-trimethyl-9-(oxazol-2-ylmethyl)-3-thia-1,8,11,12-tetrazatricyclo[8.3.0.0^2,6]trideca-2 (6),4,7,10,12-pentaen-7-yl]phenyl]ethynyl]-2-azaspiro[3.3]heptan-2-yl]pyridazine-3-carboxamide] | < 500 | < 500 | – | 1
17 | – | > 3000 | – | COc1cc(O[C@H]2CC[C@H](NC(=O)c3ccc(N4CCC5(CCN(c6ccc(C7=NC(Cc8ncco8)c8nnc(C)n8-c8sc(C)c(C)c87)cc6C(F)(F)F)CC5)C4)nn3)CC2)ccc1C#N (some centres unmarked) [Compound I-126] | – | < 500 | > 3000 | –
